Data on 96 molecules can be found in ChEMBL document CHEMBL3507680, “University of Dundee, Gates Library screen for HepG2 cell viability”.

Each structure is given as a SMILES string.

The data set in a line: Human HepG2 cell viability assay in 384 well format. Format: toxicity, cell-based. Details: dose 125 nL, time 70.5 hour; concentration not given beside the values. The conditions noted are these: HepG2 cells, read-out: Inhibition.
For the molecule `Cc1ccc(NC(=O)c2cc(S(=O)(=O)N3CCCCC3)c[nH]2)cc1F`, the cytotoxicity at 70.5 h is -8.62%. For `CCOc1ccc(NC(=O)c2cnc(N3CCCC3)nc2C)cc1`, the cytotoxicity at 70.5 h was -15.6%.

As for `COCCn1ccc(=O)c(OCC(=O)Nc2ccccc2)c1C`, the cytotoxicity at 70.5 h was -10.1%. Regarding `COCCn1ccc(=O)c(OCC(=O)Nc2cccc(C(C)=O)c2)c1C`, the cytotoxicity at 70.5 h was -4.4%. For `CC1=Nc2c(c(=O)[nH]n2C(C)C)C(c2ccc(F)c(F)c2)S1` (stereo unspecified) the value was -4.57%. For `CC(C)n1ncc2c1NC(=O)CC21C(=O)Nc2c(Cl)cccc21` (stereo unspecified) the value was -5.46%; for `O=c1cc2c(nn1CN1CCN(c3ccccc3)CC1)CCC2`, -4.25%. On to `O=c1cc2c(nn1CN1CCOCC1)CCC2`, for which the cytotoxicity at 70.5 h was -3.75%.

Turning to `Cc1cc(C)c2c(c1)C1(CC(=O)Nc3c1cnn3C(C)C)C(=O)N2` (stereo unspecified), the cytotoxicity at 70.5 h is -5.35%. The figure for `CC(C)CC1SCC(=O)Nc2c1cnn2C(C)C` (stereo unspecified) is -9.09%; for `O=C(CCc1nc2cccnc2[nH]1)NCc1cccnc1` it is 0.275%; for `CC(C)NC(=O)[C@@H](NC(=O)N1CCN(c2ccc(Cl)cc2)CC1)C(C)C` it is 6.91%. The figure for `O=C(NCCCO)C1CC(=O)N(c2n[nH]c3cccc(F)c23)C1` (stereo unspecified) is 1.35%; for `COc1cc(C2CC(=O)Oc3cc(C)[nH]c(=O)c32)ccc1OC(F)F` (stereo unspecified) it is 10.5%; for `O=C(NCCN1CCOCC1)c1cc(-c2ccc3c(c2)CCO3)n[nH]1` it is 2%. For `CC1(C)OCC(CNC(=O)c2cnn(-c3ccc(Cl)cc3)c2N)O1` (stereo unspecified) the value was 7.47%; for `COc1ccc(-n2ncc(C(=O)NCC3COC(C)(C)O3)c2N)cc1` (stereo unspecified), -5.98%; for `CC(=O)N1N=C(c2ccccc2)OC1C(=O)NCCC1=CCCCC1` (stereo unspecified), -0.565%. Consider `COCCNC(=O)c1cn(C(C)(C)C)c2ncccc12`, for which the cytotoxicity at 70.5 h is -5.71%. Turning to `COCC(C)NC(=O)c1cn(C(C)(C)C)c2ncccc12` (stereo unspecified), the cytotoxicity at 70.5 h is -6.59%. For the molecule `COc1ccc(NC(=O)N2CCCC2c2ccco2)cc1OC` (stereo unspecified), the cytotoxicity at 70.5 h is -0.202%. The figure for `Cc1ccc(C)c(C(NC(=O)C2CC2)c2cccnc2)c1` (stereo unspecified) is -1.23%. For `COc1ccc(C2=C(C)C(N3CCc4ccccc43)=NS2(=O)=O)cc1` the value was -12.7%; for `COc1ccc(C2=C(C)C(N3CCc4ccccc4C3)=NS2(=O)=O)cc1`, 48.7%; for `COC(=O)c1ccccc1NC(=O)c1nc2ccccc2n(C)c1=O`, 32.8%. For `Cc1ccc(C2CCCCCN2Cc2cn(C)nc2C)cc1` (stereo unspecified) the value was -12.1%. As for `Cc1ccc(C2CCCCCN2Cc2cn(C)nc2C)s1` (stereo unspecified), the cytotoxicity at 70.5 h is -19.6%. The figure for `COc1cccc(CN2CCCCCC2c2cccs2)c1O` (stereo unspecified) is -6.94%; for `CCOC(=O)CCNC(=O)N1CCN(c2nc3ccccc3n2C)CC1` it is -9.85%; for `COc1cc(NC(=O)Cn2ccc3sc(C)cc3c2=O)cc(OC)c1` it is -22%. For `CCS(=O)(=O)N1CCCc2ccc(NC(=O)Cc3ccc(F)cc3)cc21` the value was 36.7%; for `CCc1cnc2c(c1NCc1ccncc1)c(=O)n(C)c(=O)n2C`, -8.17%. The figure for `Cc1cnc2n(c1=O)C(CC(=O)NCc1cc(-c3cccs3)on1)CS2` (stereo unspecified) is 55.7%. As to `Cc1sc(NC(=O)CN(C)S(C)(=O)=O)c(C#N)c1C`, the cytotoxicity at 70.5 h was 10%.

`O=C(CSC1=NS(=O)(=O)c2cc(F)ccc2N1)Nc1cccc(Cl)c1`: the cytotoxicity at 70.5 h was -2.86%. Consider `O=S1(=O)N=C(SCc2ccc(Cl)cc2)Nc2ccc(F)cc21`, for which the cytotoxicity at 70.5 h is 7.01%. The figure for `CNC(=O)CSc1cnn(CC(=O)Nc2cccc(Cl)c2C)c(=O)c1Cl` is -16.3%; for `O=C(CCc1ccccc1)NCC1CCN(Cc2ccsc2)CC1` it is 5.29%. The figure for `CCCc1nnsc1C(=O)NCC1CCN(S(C)(=O)=O)CC1` is -4%; for `Cc1ccc(N2CCN(C(=O)COc3ccccc3)CC2)nn1` it is -1.33%. For `COc1ccc(F)cc1S(=O)(=O)NCC(c1cccn1C)N(C)C` (stereo unspecified) the value was -1.76%; for `Cc1ccnc(OCC(=O)N2CCC(C(N)=O)CC2)n1`, -4.44%. As for `COCC(C)(O)CNC(=O)COc1ccccc1OC` (stereo unspecified), the cytotoxicity at 70.5 h was -3.09%.

Take `O=C(c1ccc(=O)[nH]n1)N1CC(c2nc(Cc3ccccc3)no2)C1`: the cytotoxicity at 70.5 h is -0.421%.

As for `Cc1ncc(C(=O)N2CCC(C(=O)NC3CCCC3)C2)c(C)n1` (stereo unspecified), the cytotoxicity at 70.5 h is -6.35%. The figure for `CC(C)C(=O)N1CCC(c2nc3ccccn3c2NC(C)(C)C)CC1` is -10.5%; for `CC(C)(C)Nc1c(C2CCN(C(=O)C(C)(C)C)CC2)nc2ccccn12` it is -4.87%.

On to `CCCC1c2cccn2CCN1C(=O)Cn1cnc2sc(C)cc2c1=O` (stereo unspecified), for which the cytotoxicity at 70.5 h is -12.3%. As to `Cc1nc(O)cc([C@@H]2CN(S(=O)(=O)N(C)C)C[C@H]2c2ccccc2F)n1`, the cytotoxicity at 70.5 h is -8.96%.

On to `Cc1nc(O)cc([C@@H]2CN(C(=O)C3CC3)C[C@H]2c2ccccc2F)n1`, for which the cytotoxicity at 70.5 h was -2.23%. As to `CCS(=O)(=O)N1C[C@@H](c2cc(O)nc(C)n2)[C@H](c2ccccc2F)C1`, the cytotoxicity at 70.5 h was found to be 13.7%. The figure for `CCC1CCCCN1C(=O)Cn1nc(-c2ccc(C)s2)cc(N)c1=O` (stereo unspecified) is -2.23%. As to `O=C(NCCc1cc2nc(-c3ccncc3)ccn2n1)C1CCOCC1`, the cytotoxicity at 70.5 h is -5.82%. Take `Cc1cc(-c2cc(N)c(=O)n(CC(=O)NC3CCCC3)n2)c(C)o1`: the cytotoxicity at 70.5 h is -1.96%. Turning to `Cc1cc(-c2cc(N)c(=O)n(CC(=O)N3CCCC(C)C3)n2)c(C)o1` (stereo unspecified), the cytotoxicity at 70.5 h was -9.35%.

For the molecule `CN1C[C@@H](C(=O)NC2CCCC2)[C@@]2(COc3ccc(F)cc3C2=O)C1`, the cytotoxicity at 70.5 h was -6.62%.

Regarding `CN1CCN(C(=O)[C@@H]2CN(C)C[C@]23COc2ccc(F)cc2C3=O)CC1`, the cytotoxicity at 70.5 h came to 28.4%. On to `Cn1nccc1C(=O)NCCN1CCC(O)(c2ccc(F)cc2)CC1`, for which the cytotoxicity at 70.5 h was 7.28%.

In the case of `O=C(Cn1cc(Cl)cn1)NCCN1CCC(O)(c2ccc(F)cc2)CC1`, the cytotoxicity at 70.5 h was found to be 5.27%. The figure for `CN(c1cccnn1)[C@@H]1CC[C@@H]2CN(Cc3ccccc3C(=O)O)C[C@@H]21` is -6.92%; for `CC1(C)O[C@@](C)([C@H]2CC3(CCN(c4cnccn4)CC3)CO2)CC[C@@H]1O` it is 1.78%; for `CN(C)Cc1cnc(C2CCN(C(=O)c3ccc(F)cc3)C2)[nH]1` (stereo unspecified) it is -6.91%. With `CCCC1c2cccn2CCN1S(=O)(=O)N1CCOCC1` (stereo unspecified), the cytotoxicity at 70.5 h is -4.73%. `CC(=O)N1CCOC(CCc2cc(-c3c(C)noc3C)ncn2)C1` (stereo unspecified): the cytotoxicity at 70.5 h is -0.21%.

For `COc1cc(CCC(=O)N2CCC(c3cnccn3)CC2)on1`, the cytotoxicity at 70.5 h is -1.25%. The figure for `CCOCC(=O)N1C[C@@H](O)[C@H](N2CCN(c3ccccc3)CC2)C1` is -3.95%; for `Nc1nccc(C2CN(Cc3ccc(-c4ccccc4C(=O)O)o3)C2)n1` it is 2.9%; for `CN(c1cccnn1)[C@@H]1CC[C@@H]2CN(Cc3cccc(C(=O)O)c3)C[C@@H]21` it is -6.81%. The figure for `CC1(C(N)=O)CN(CC2CCC2)CCO1` (stereo unspecified) is -2.2%; for `Cc1nn(C)c(C)c1-c1ccc(=O)n(C(C)C(=O)NC(C)(C)C)n1` (stereo unspecified) it is 3.31%.

Take `Cn1ccnc1C(O)c1ccccc1N1CCN(Cc2cccs2)CC1` (stereo unspecified): the cytotoxicity at 70.5 h is -0.023%. For `CCc1cc(O)n2nc(C3CCN(C(=O)c4ccccn4)CC3)cc2n1` the value was -0.453%.

Consider `Cc1ncc(C(=O)N2CC(C(=O)N3CCCCCC3)C2)c(C)n1`, for which the cytotoxicity at 70.5 h is -4.02%.

As for `CCOc1cc([C@@H]2N[C@H](c3nccs3)Cc3ccsc32)ccc1OC`, the cytotoxicity at 70.5 h was -3%. For the molecule `CCC1CCCCN1C(=O)Cn1nc(-c2cc(C)oc2C)cc(N)c1=O` (stereo unspecified), the cytotoxicity at 70.5 h was -3.58%.

`CC(C)NC(=O)[C@@H]1CN(C(=O)C2CC2)C[C@]12Cc1ccccc1C(=O)N2`: the cytotoxicity at 70.5 h is -3.78%. For `CC(=O)N1CCOCC(Cc2ccc3c(ccn3C)c2)C1` (stereo unspecified) the value was -0.747%; for `Cc1noc(C)c1-c1cc(CCC2CN(C(=O)CN)CCO2)ncn1` (stereo unspecified), -2.94%; for `Cc1cc2ncc(CN(C)C)c(C3CCN(C)CC3)n2n1`, 13.7%. Turning to `COC(=O)c1cccc(C2CNCCN2C(C)=O)c1` (stereo unspecified), the cytotoxicity at 70.5 h was 21.6%.

With `CC(C)C(=O)N(C)Cc1nc(N2CCCC2)ncc1-c1ccncc1`, the cytotoxicity at 70.5 h is -6.45%. The figure for `CC(C)(C)Nc1c(C2CCCN(C(=O)C3CC3)C2)nc2ccccn12` (stereo unspecified) is 17%; for `Cc1ccc(C2(CN3CCN(Cc4cn(C)nc4C)CC3)CC2)cc1` it is -11.3%. For `Cn1cc(CN2CCN(CC3(c4ccccc4)CC3)CC2)cn1` the value was -11.2%. `CN1CCCC1c1cc2cccnc2n1Cc1ccc(F)cc1` (stereo unspecified): the cytotoxicity at 70.5 h was -5.23%. Take `O[C@@H]1CN(Cc2cccc(F)c2)CC[C@H]1NCc1ccccn1`: the cytotoxicity at 70.5 h was determined as 12.7%. In the case of `CCc1nc(-c2cncnc2C2CCCNC2)no1` (stereo unspecified), the cytotoxicity at 70.5 h is -1.26%.

As for `FC(F)CNc1cnc(C2CCCN2)cn1` (stereo unspecified), the cytotoxicity at 70.5 h is 3.12%. For `O=C(CN1CCN(CC(O)C2CC2)CC1)NCc1ccc(F)cc1` (stereo unspecified) the value was -0.525%; for `COC(=O)CN1CC(c2nc(Cc3ccccc3)no2)C1`, -6.57%.

As to `CCC(CN1CCCCC1)NC(=O)C1(c2ccc(F)cc2)CC1` (stereo unspecified), the cytotoxicity at 70.5 h was -7.64%.

As to `Cc1ccc(CN(CCCN(C)C)Cc2cnc(N(C)C)nc2)o1`, the cytotoxicity at 70.5 h amounted to 6.47%.

`Cc1ccc(CN(CCCN2CCOCC2)Cc2cnn(C)c2)o1`: the cytotoxicity at 70.5 h was 0.657%.

For `Cc1noc(C)c1-c1cccc(C2CN(CC(=O)N(C)C)CCO2)n1` (stereo unspecified), the cytotoxicity at 70.5 h was -4.85%.

In the case of `Cc1cccc(Nc2cc(C3CCCN(CC(N)=O)C3)ccn2)n1` (stereo unspecified), the cytotoxicity at 70.5 h was determined as 22.5%.

For the molecule `COc1ccc(OCCc2cc(C3CCN(CC(C)C)C3)n[nH]2)cc1` (stereo unspecified), the cytotoxicity at 70.5 h is -2.33%.
